Experimental data published in ChEMBL document CHEMBL1201862, “PubChem BioAssay data set” (2004).
Calls of active or inactive are those of the source. For most assays here, no stated cut-off is given here; in the data, actives have a measured EC50 and inactives only a lower limit.

How the values were obtained:
[1] = system: Streptococcus sp. 'group A'; experiment: Streptococcus pyogenes SK(-)GAS viability under kanamycin – luminescence, BacTiterGlo, confirmation, counter-screen for streptokinase expression inhibitor project, dose response (AID 1900); assay type: functional, organism-based
Streptokinase A = target: T1, Streptokinase A (Streptococcus pyogenes serotype M1, UniProt P10520); experiment: viability-normalized secreted streptokinase activity reduction – plasminogen activation absorbance, OD405, dose response (AID 1914); assay type: functional, Streptococcus pyogenes M1 GAS;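 further: secreted streptokinase activity via plasminogen activation per viability signal from cell pellet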
T1 sequence (P10520 whole entry): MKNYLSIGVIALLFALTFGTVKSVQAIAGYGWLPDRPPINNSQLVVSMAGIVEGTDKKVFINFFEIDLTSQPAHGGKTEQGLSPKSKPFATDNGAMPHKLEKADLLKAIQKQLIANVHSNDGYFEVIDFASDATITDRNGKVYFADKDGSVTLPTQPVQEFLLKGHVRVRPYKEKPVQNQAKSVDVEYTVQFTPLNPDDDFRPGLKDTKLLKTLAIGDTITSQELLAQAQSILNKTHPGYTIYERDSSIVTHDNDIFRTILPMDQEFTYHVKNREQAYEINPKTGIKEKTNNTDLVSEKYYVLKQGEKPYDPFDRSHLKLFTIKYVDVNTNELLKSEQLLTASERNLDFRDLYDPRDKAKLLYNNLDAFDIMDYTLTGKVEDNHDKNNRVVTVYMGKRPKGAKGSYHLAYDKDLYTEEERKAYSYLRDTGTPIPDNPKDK

Streptococcus = experiment: GAS UMAA2166 growth inhibition – luminescence, BacTiterGlo, counter-screen for streptokinase expression inhibitor project, dose response (AID 1915); assay type: functional, organism-based;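 further: potency for reduction of bacterial viability or growth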
Cytochrome P450 3A4 = Cytochrome P450 3A4 (Homo sapiens, UniProt P08684);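 further: CYP3A4 tested as one member of a cytochrome P450 panel screen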
[2] = Luminescence Cell-Based Dose Response HTS to Identify Activators of Luciferase Translation or Activity in H4 […] Cells. [Related pubchem assays: 1829 (Project Summary), 1814 (Primary HTS)]; assay type: functional
H4 = experiment: Luminescence Cell-Based Dose Response HTS to Identify Activators of 5'UTR Stem-Loop Driven Prion Protein mRNA Translation in H4 Neuroglioblastoma Cells. [Related pubchem assays: 1829 (Project Summary), 1814 (Primary HTS)]; assay type: functional; details: Homo sapiens
Cytochrome P450 2C9 = Cytochrome P450 2C9 (Homo sapiens, UniProt P11712)
[3] = Trypanosoma cruzi growth suppression in host cells – NIH3T3 host cells, beta-gal luminescence, confirmation (AID 2044); assay type: functional, cell-based;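 further: intracellular parasites grown in NIH/3T3 mouse fibroblasts as host cells; luminescent beta-galactosidase reporter signal from transgenic T. cruzi replicating inside host cells; inhibitors lower the luminescence signal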
[4] = NIH3T3 cell viability loss – ATP luminescence, mouse fibroblasts, counter-screen, dose response (AID 2010); assay type: functional, cell-based;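 further: cells exposed to compound for about 90 hours before reading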

Cytochrome P450 2C9, sequence (P11712 whole entry): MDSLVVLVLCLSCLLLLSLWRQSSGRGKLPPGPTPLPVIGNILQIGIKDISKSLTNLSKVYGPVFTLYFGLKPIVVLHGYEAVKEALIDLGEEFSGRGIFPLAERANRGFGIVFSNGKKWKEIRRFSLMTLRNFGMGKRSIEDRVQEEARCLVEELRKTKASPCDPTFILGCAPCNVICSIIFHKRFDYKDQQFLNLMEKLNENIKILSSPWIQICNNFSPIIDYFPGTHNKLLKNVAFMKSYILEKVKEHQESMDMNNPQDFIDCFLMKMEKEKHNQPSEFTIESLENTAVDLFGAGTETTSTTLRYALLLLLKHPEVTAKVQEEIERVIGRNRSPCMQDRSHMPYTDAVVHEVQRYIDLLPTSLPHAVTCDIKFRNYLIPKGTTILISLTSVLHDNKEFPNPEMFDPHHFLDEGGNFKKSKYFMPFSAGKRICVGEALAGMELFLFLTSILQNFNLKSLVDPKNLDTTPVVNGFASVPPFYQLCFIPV
Cytochrome P450 3A4, sequence (P08684 whole entry): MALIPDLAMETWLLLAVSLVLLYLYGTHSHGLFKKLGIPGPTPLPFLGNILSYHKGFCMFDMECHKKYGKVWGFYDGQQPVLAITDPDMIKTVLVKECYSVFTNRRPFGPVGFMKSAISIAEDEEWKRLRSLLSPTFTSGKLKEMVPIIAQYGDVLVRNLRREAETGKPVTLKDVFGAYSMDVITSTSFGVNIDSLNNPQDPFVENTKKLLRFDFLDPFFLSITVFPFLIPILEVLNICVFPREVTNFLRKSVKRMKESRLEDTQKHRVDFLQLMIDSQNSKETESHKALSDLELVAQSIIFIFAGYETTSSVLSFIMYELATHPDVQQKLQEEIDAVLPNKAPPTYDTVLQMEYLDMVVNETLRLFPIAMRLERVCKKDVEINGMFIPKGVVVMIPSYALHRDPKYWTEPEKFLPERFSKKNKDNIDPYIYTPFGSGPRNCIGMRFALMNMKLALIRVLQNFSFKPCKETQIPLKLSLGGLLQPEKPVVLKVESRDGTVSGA

With `Cc1noc(C)c1CSCC(=O)Nc1nc2ccc(Oc3ccccc3)cc2s1` the EC50 [1] was 4.32 µM (active), the EC50 (Streptokinase A) was 16.9 µM (active) and the EC50 (Streptococcus) was > 150 µM (not active).
With `Cc1ccc(NC(=O)OCc2cn(-c3ccc(Cl)cc3)nn2)cc1` the AC50 (Cytochrome P450 3A4) was 7.94 µM (inconclusive).
With `O=C(c1ccco1)N(CCC(c1ccccc1)c1ccco1)Cc1ccco1` (configuration not stated) the AC50 (Cytochrome P450 3A4) was 11.2 µM (inconclusive).
In the case of `CC(C)CN1CCCC2(CCN(C(=O)c3cccn3C)CC2)C1`, the AC50 (Cytochrome P450 3A4) is reported as 12.6 µM (inconclusive).
For `O=C(CSc1nnc(-c2cccnc2)o1)Nc1ccccn1`, the EC50 [2] was 14.5 µM (active) and the EC50 (H4) was > 120 µM (not active).
With `CN(C)c1ccc(-c2noc(C3CCN(S(=O)(=O)c4cccc(C(=O)O)c4)CC3)n2)cc1` the AC50 (Cytochrome P450 2C9) was 15.8 µM (inconclusive).
With `O=C(O)CSc1nnc(Cn2c(=O)sc3ccccc32)n1-c1cccc(Cl)c1` the EC50 [1] was > 150 µM (not active), the EC50 (Streptokinase A) was > 150 µM (not active) and the EC50 (Streptococcus) was > 150 µM (not active).
In the case of `CCCC(NC(=S)NCC1CCCO1)C12CC3CC(CC(C3)C1)C2` (configuration not stated), the EC50 (Streptokinase A) is reported as 18 µM (active).
For `Cc1c(C(=O)N2CCC(Cc3ccccc3)CC2)sc2ncnc(N3CCC(C)CC3)c12`, the EC50 [1] was 11.6 µM (active), the EC50 (Streptokinase A) was 3.68 µM (active) and the EC50 [3] was 1.68 µM (active). The EC50 [4] was > 60 µM (not active) and the EC50 (Streptococcus) was 60 µM (active).
For `COc1ccccc1CNc1ncncc1-c1ccoc1`, the AC50 (Cytochrome P450 3A4) was 0.794 µM (inconclusive) and the AC50 (Cytochrome P450 2C9) was 1.58 µM (inconclusive).
For `Cc1nc2ccccc2c(=O)n1NC(=O)/C=C/c1ccccc1Cl`, the EC50 [2] was 12.2 µM (active) and the EC50 (H4) was 84.4 µM (active).
With `C[C@@]12CC[C@H]3[C@@H](CC[C@@H]4C[C@H]5S[C@H]5C[C@]43C)[C@H]1CC[C@H]2O` the AC50 (Cytochrome P450 3A4) was 6.31 µM (inconclusive).
In the case of `CCCn1c(=O)c(C(=O)Nc2ncccc2C)c(O)c2ccccc21`, the EC50 [1] is reported as 9.49 µM (active), the EC50 (Streptokinase A) is reported as > 150 µM (not active) and the EC50 (Streptococcus) is reported as 16.8 µM (active).
For `O=C(Nc1cc(C(F)(F)F)ccc1-n1cncn1)c1ccc(Br)cc1`, the AC50 (Cytochrome P450 2C9) was 3.16 µM (inconclusive).
With `COc1ccc(CNC(=O)CN(Cc2ccccc2)S(=O)(=O)c2ccc(Cl)cc2)cc1` the EC50 [3] was 3.15 µM (active) and the EC50 [4] was > 60 µM (not active).
In the case of `Cc1nn(C)c(Cl)c1CN1CCCC(C(=O)Nc2ccc(-c3cscn3)cc2)C1` (configuration not stated), the EC50 [1] is reported as > 150 µM (not active), the EC50 (Streptokinase A) is reported as > 150 µM (not active) and the EC50 (Streptococcus) is reported as > 150 µM (not active).
For `COCCOC(=O)C1=C(C)NC(=O)N(C(C)=O)C1c1ccc(Cl)cc1` (configuration not stated), the AC50 (Cytochrome P450 3A4) was 17.8 µM (inconclusive).
In the case of `COc1cccc(CNC(=O)CCC2CCCN(Cc3cc4ccccc4o3)C2)c1` (configuration not stated), the EC50 [3] is reported as 0.103 µM (active) and the EC50 [4] is reported as > 60 µM (not active).
For `O=C(Cn1c(-c2ccccc2)c[n+]2ccsc12)c1ccccc1`, the EC50 [3] was 2.29 µM (active) and the EC50 [4] was > 30 µM (not active).
For `CC(C)c1c(C(=O)N/N=C/c2cccc(OCc3ccccc3)c2)nnn1-c1nonc1N`, the EC50 [1] was 8.03 µM (active), the EC50 (Streptokinase A) was 9.73 µM (active) and the EC50 (Streptococcus) was 26.4 µM (active).
For `C[C@H]1CC[C@H]2C(=O)N3[C@H](c4ccc(Br)cc4)[C@@H](C)CC[C@H]3C(=O)N2[C@@H]1c1ccc(Br)cc1`, the AC50 (Cytochrome P450 3A4) was 3.98 µM (inconclusive).
For `CCCC(N=C(S)NCC1CCCO1)C12CC3CC(CC(C3)C1)C2` (configuration not stated), the EC50 [1] was 12.3 µM (active) and the EC50 (Streptococcus) was > 150 µM (not active).
With `CN(C)c1cc(-c2cccc(NS(C)(=O)=O)c2)ncn1` the AC50 (Cytochrome P450 3A4) was 25.1 µM (inconclusive).
In the case of `COc1ccccc1C(=O)Nc1nnc(S(=O)(=O)N2CCN(c3ccc(F)cc3)CC2)s1`, the EC50 [1] is reported as 20.1 µM (active), the EC50 (Streptokinase A) is reported as > 50 µM (not active) and the EC50 (Streptococcus) is reported as 119 µM (inconclusive).
In the case of `COc1ccc(C2CC(c3cccs3)=NN2C(=O)CSc2nc(O)c3cnn(-c4ccccc4)c3n2)cc1` (configuration not stated), the EC50 [1] is reported as 3 µM (active) and the EC50 (Streptococcus) is reported as 5.77 µM (active).
For `O=[N+]([O-])c1ccc(S(=O)(=O)NCC(c2cccnc2)N2CCc3ccccc32)cc1` (configuration not stated), the EC50 [3] was 0.622 µM (active) and the EC50 [4] was > 60 µM (not active).
For `Cc1nc2cnc(N3CCN(C)CC3)nc2n(Cc2ccc(F)cc2)c1=O`, the AC50 (Cytochrome P450 3A4) was 20 µM (inconclusive).
In the case of `COc1cccc(-c2cncnc2NCc2ccc(OC)cc2OC)c1`, the AC50 (Cytochrome P450 2C9) is reported as 1 µM (inconclusive).
With `O=C(CSc1nc2ccc([N+](=O)[O-])cc2s1)c1ccc2ccccc2c1` the AC50 (Cytochrome P450 3A4) was 3.98 µM (inconclusive).
With `Clc1ccccc1-c1cncnc1NCCc1cnc[nH]1` the AC50 (Cytochrome P450 2C9) was 1 µM (inconclusive).
With `O=C(CC(=O)c1ccccc1)Nc1cccnc1Cl` the EC50 [2] was 61.9 µM (active) and the EC50 (H4) was 8.38 µM (active).
With `CCN1CC(CN(C)Cc2nc(-c3ccc(C(F)(F)F)cc3)oc2C)CC1=O` (configuration not stated) the EC50 [3] was 0.288 µM (active) and the EC50 [4] was 32.6 µM (active).
With `O=C(Nc1ccccc1Sc1ccccc1)c1ccccc1F` the EC50 (Streptokinase A) was > 50 µM (not active) and the EC50 (Streptococcus) was > 150 µM (not active).
With `Cc1cc2c(cc1C)-c1c(ss/c1=N\c1ccc(S(N)(=O)=O)cc1)C(C)(C)N2` the EC50 [1] was 4.16 µM (active), the EC50 (Streptokinase A) was 26.1 µM (active) and the EC50 (Streptococcus) was > 150 µM (not active).
In the case of `C/C(Cn1cnc([N+](=O)[O-])n1)=N\NC(=O)c1ccc(O)cc1O`, the EC50 [3] is reported as 1.52 µM (active) and the EC50 [4] is reported as > 60 µM (not active).
For `O=C(COC(=O)c1ccccc1)Nc1ccccc1Sc1ccccc1`, the EC50 [1] was > 150 µM (not active), the EC50 (Streptokinase A) was 28.8 µM (active) and the EC50 (Streptococcus) was > 150 µM (not active).
With `COc1ccc2c3c1O[C@@H]1C(=O)CC[C@@]4(O)[C@@H](C2)N(CC2CC2)CC[C@]314` the AC50 (Cytochrome P450 3A4) was 25.1 µM (inconclusive).
In the case of `O=C(Cn1cnc2cc([N+](=O)[O-])ccc2c1=O)Nc1ccc(Br)cc1`, the EC50 [3] is reported as 0.85 µM (active) and the EC50 [4] is reported as > 30 µM (not active).
For `CC(Oc1ccc(Cl)cc1Cl)C(=O)Nc1ccc(S(=O)(=O)Nc2cnc3ccccc3n2)cc1` (configuration not stated), the EC50 [1] was 2.45 µM (active), the EC50 (Streptokinase A) was 3.69 µM (active) and the EC50 (Streptococcus) was 7.38 µM (active).
In the case of `C/C(=N\NC(=O)c1[nH]c2c([N+](=O)[O-])cc(C)cc2c1-c1ccccc1)c1cccnc1`, the AC50 (Cytochrome P450 2C9) is reported as 8.91 µM (inconclusive).
In the case of `Clc1ccc(-c2cc3ccccc3nc2N2CCCC2)cc1`, the EC50 [1] is reported as 8.89 µM (active), the EC50 (Streptokinase A) is reported as 17.6 µM (active) and the EC50 (Streptococcus) is reported as > 150 µM (not active).
For `CCCCOc1cc(C[C@@H]2CNC(=O)N2)ccc1OC`, the AC50 (Cytochrome P450 3A4) was 15.8 µM (inconclusive).
For `COc1ccccc1CNC(=O)c1ccc(-c2ccccc2Cl)o1`, the EC50 [1] was 15.3 µM (active), the EC50 (Streptokinase A) was > 150 µM (not active) and the EC50 (Streptococcus) was 17.5 µM (active).
In the case of `Fc1ccc(/C=C\c2[nH]ccc3c4ccccc4nc2-3)cc1`, the EC50 [2] is reported as 17.7 µM (active) and the EC50 (H4) is reported as > 120 µM (not active).
For `COc1cccc(NCc2cc(=O)oc3cc(C)c(O)cc23)c1`, the EC50 [1] was 1.83 µM (active) and the EC50 (Streptococcus) was 2.79 µM (active).
With `CC(NC(=O)CN1CCCC1)C12CC3CC(CC(C3)C1)C2` (configuration not stated) the AC50 (Cytochrome P450 3A4) was 14.1 µM (inconclusive).
With `O=c1c(-c2cccs2)nc2cnc(Oc3ccccc3)nc2n1Cc1cccs1` the AC50 (Cytochrome P450 3A4) was 15.8 µM (inconclusive) and the AC50 (Cytochrome P450 2C9) was 1.58 µM (inconclusive).
In the case of `COc1ccccc1CNc1ncncc1-c1ccccc1OC`, the AC50 (Cytochrome P450 2C9) is reported as 1.58 µM (inconclusive).
For `O=C(C1CCCCC1)N(CCN1CCCC1)c1nc2ccccc2s1`, the EC50 [3] was 0.78 µM (active) and the EC50 [4] was > 60 µM (not active).
For `COc1ccc(C(=O)Nc2sc(C)c(-c3ccccc3)c2C#N)cc1OC`, the EC50 [1] was 9.09 µM (active), the EC50 (Streptokinase A) was > 150 µM (not active) and the EC50 (Streptococcus) was 45.5 µM (active).
In the case of `CCNC(C)(C)[C@@H](SS)c1ccc(Br)cc1`, the AC50 (Cytochrome P450 3A4) is reported as 5.01 µM (inconclusive) and the AC50 (Cytochrome P450 2C9) is reported as 6.31 µM (inconclusive).
With `C=C(C)CSc1nncn1/N=C/c1ccc(OC)cc1` the EC50 [2] was > 120 µM (not active) and the EC50 (H4) was 11.9 µM (active).
In the case of `CC(C)CN1CCC2(CC1)CCN(C(=O)c1ccncc1)CC2`, the AC50 (Cytochrome P450 3A4) is reported as 15.8 µM (inconclusive).
For `CN1CCC(N(C)C(=O)c2sc3cc(F)ccc3c2Cl)CC1`, the EC50 [3] was 0.197 µM (active) and the EC50 [4] was > 60 µM (not active).
For `C1=C(CN2CCOCC2)COc2c1cccc2OC[C@@H]1CNCCO1`, the AC50 (Cytochrome P450 3A4) was 39.8 µM (inconclusive).
For `Cc1ccc(N2C(=O)C3N=NN(CC(=O)N4N=C(c5cccc6ccccc56)CC4c4ccccc4)C3C2=O)cc1` (configuration not stated), the EC50 [1] was 31.4 µM (active), the EC50 (Streptokinase A) was 35.7 µM (active) and the EC50 (Streptococcus) was > 150 µM (not active).
